The values below are quoted from earlier work in patent publication US7320786B2, “Photodynamic therapy treatment for eye disease” (Light Sciences Oncology, Inc., priority 2000, dated 2008).

The conditions of the data set: systemically administered photosensitizer, clinical use.

In the case of `CCOC(=O)C1=Cc2c3nc(cc4nc(cc5[n-]c(cc6[n-]c2c(C)c6CC)c(C)c5CC)C(C)=C4CC)[C@@H](C)[C@]13CC.[Cl-].[Cl-].[Sn]` (racemic) [Purlytin], the “duration of skin photosensitivity” value is “several”.

For sodium porfimer [Photophrin], the “duration of skin photosensitivity” value is given as “up to 6 weeks”.

Consider `Oc1cccc(-c2c3nc(c(-c4cccc(O)c4)c4ccc([nH]4)c(-c4cccc(O)c4)c4nc(c(-c5cccc(O)c5)c5ccc2[nH]5)CC4)C=C3)c1` [Foscan], for which the “duration of skin photosensitivity” value is “several”.
